Source: US20230339874A1, “PIPERAZINYL COMPOUNDS AND METHODS FOR TREATING NEMATODE INFECTIONS” (The Governing Council of the University of Toronto, priority 2020, published 2023)
pEC50: −log10 of the molar value. Like-named read-outs stand apart in the source and are kept apart here.

Assays:
C. elegans L3 larvae = C. elegans L3 larvae abnormal locomotory behaviour on solid agar; conditions: solid agar MYOB + E. coli OP50, mean of 4 replicates; for % C. elegans L3 larvae any phene 1 h (conc.): 1 h exposure; for % C. elegans L3 larvae any phene 6 h (conc.): 6 h exposure; for % C. elegans L3 larvae any phene 24 h (conc.): 24 h exposure
Procedure: 20 animals were scored after either 1, 6 or 24 hours of exposure to drug (as indicated) per replicate. […] Data are reported as the mean % of animals with abnormal phenotype over 4 independent replicates.

[1] = system: Heligmosomoides polygyrus larval stage 3 (L3) worms; format: in vivo; conditions: 72 h incubation, one replicate
[2] = system: Danio rerio (zebrafish) embryos; assay: Danio rerio (zebrafish) embryo abnormal developmental phenotype; format: in vivo; conditions: for EC50: read-out: D. rerio (zebrafish) any phenotype EC50 (μM); for pEC50: 1 day post fertilization embryos through 48 h of development, tested at 15 and 3.75 μM, select compounds at 60 and 30 μM, read-out: D. rerio (zebrafish) any phenotype EC50
Strongyloides ratti L3 = format: in vivo; conditions: 72 h incubation, 1 replicate
[3] = system: Pristionchus pacificus young adult animals; assay: Pristionchus pacificus young adult abnormal locomotory behaviour on solid agar; format: in vivo; conditions: read-out: P. pacificus, young adult 1 h any phene at 1 h (EC50 (μM))
[4] = 1 h exposure, tested at 3.75, 15 and 60 μM, NA = not active, no phenotype at 60 μM

Compound | % C. elegans L3 larvae any phene 1 h (conc.) (C. elegans L3 larvae; 3.75 uM) [%] | % C. elegans L3 larvae any phene 6 h (conc.) (C. elegans L3 larvae; 3.75 uM) [%] | % C. elegans L3 larvae any phene 24 h (conc.) (C. elegans L3 larvae; 3.75 uM) [%] | % C. elegans L3 larvae any phene 1 h (conc.) (C. elegans L3 larvae; 15 uM) [%] | % C. elegans L3 larvae any phene 6 h (conc.) (C. elegans L3 larvae; 15 uM) [%] | % C. elegans L3 larvae any phene 24 h (conc.) (C. elegans L3 larvae; 15 uM) [%] | % C. elegans L3 larvae any phene 1 h (conc.) (C. elegans L3 larvae; 60 uM) [%] | % C. elegans L3 larvae any phene 6 h (conc.) (C. elegans L3 larvae; 60 uM) [%] | % C. elegans L3 larvae any phene 24 h (conc.) (C. elegans L3 larvae; 60 uM) [%] | H. Polygyrus % lethality L3 25 μM [1] [%] | EC50 [2] [µM] | S. ratti L3 % lethality 25 μM (Strongyloides ratti L3) [%] | EC50 ([3]; 1 h) [µM] | pEC50 [2] | EC50 [3, 4] [µM]
FC(F)(F)c1cccc(N2CCN(CC3CC4C=CC3C4)CC2)c1 (stereo not drawn) [VI-f] | 34.2 | 0.0 | 0.0 | 81.7 | 83.2 | 52.5 | 100.0 | 100.0 | 92.5 | 0 | 7.8 | 0 | 2.8 |  | 
CC1CCC(N2CCN(c3cccc(Cl)c3)CC2)C1 (stereo not drawn) [VI-d] | 80.0 | 11.7 | 0.0 | 100.0 | 59.2 | 0.0 | 100.0 | 100.0 | 66.7 | 56.5 | 15 | 17.9 | 2.5 |  | 
c1cc(N2CCN(CC3CCCCC3)CC2)ccn1 [IV-a] | 0.0 | 0.0 | 0.0 | 10.8 | 0.0 | 0.0 | 24.2 | 12.5 | 0.0 |  | > 15 |  |  |  | 
CCN1CCN(CC2CCCCC2)CC1 [I-a] | 3.3 | 0.0 | 0.0 | 6.7 | 0.0 | 0.0 | 19.2 | 5.8 | 0.0 |  | > 15 |  | > 60 |  | 
O=[N+]([O-])c1ccc(CN2CCN(C3CCCC3)CC2)cc1 [II-b] | 0.0 | 0.8 | 0.0 | 2.5 | 0.0 | 0.0 | 23.3 | 29.2 | 0.0 |  |  |  | > 60 |  | 
FC(F)(F)c1cccc(N2CCN(C3CCCCCC3)CC2)c1 [VI-h] | 64.2 | 0.0 | 0.0 | 100.0 | 37.5 | 25.0 | 100.0 | 100.0 | 62.5 | 0 | 7.8 | 0 |  |  | 
O=[N+]([O-])c1cccc(CN2CCN(C3CCCCC3)CC2)c1 [II-a] | 0.8 | 0.0 | 0.0 | 0.0 | 0.0 | 0.0 | 6.7 | 2.5 | 0.0 |  |  |  | > 60 |  | 
O=C(C1CCC1)N1CCN(c2ccc(F)cc2)CC1 [III-c] | 0.0 | 0.0 | 0.0 | 10.0 | 0.0 | 0.0 | 27.5 | 15.0 | 0.0 |  |  |  |  | < 4.82 | > 60
FC(F)(F)c1cccc(N2CCN(CC3CCCCC3)CC2)c1 [VI-g] | 9.2 | 0.0 | 0.0 | 65.0 | 21.7 | 0.0 | 94.2 | 54.2 | 1.7 | 11.6 | 29.3 | 0 |  |  | 
Fc1ccccc1N1CCN(C2CCCCCC2)CC1 [VI-j] | 25.8 | 0.8 | 0.0 | 69.2 | 12.5 | 0.0 | 100.0 | 41.7 | 9.2 | 35.4 | 21.1 | 66.7 | 41.5 |  | 
O=C(C1CCCC1)N1CCN(c2ccc([N+](=O)[O-])cc2)CC1 [III-b] | 0.0 | 0.0 | 0.0 | 0.0 | 0.0 | 0.0 | 9.2 | 8.3 | 0.0 |  |  |  |  | 5.11 | > 60
O=C(c1ccc([N+](=O)[O-])cc1)N1CCN(C2CCCC2)CC1 [III-d] | 0.8 | 0.0 | 0.0 | 14.2 | 1.7 | 0.0 | 30.8 | 17.5 | 0.0 |  |  |  |  | < 4.82 | > 60
c1cc(N2CCN(CC3CCC3)CC2)ccn1 [IV-b] | 4.2 | 0.0 | 0.0 | 21.7 | 0.8 | 0.0 | 30.0 | 4.2 | 1.7 |  | > 15 |  |  |  | 
